In ChEMBL document CHEMBL2413049, “Design and synthesis of novel 1,25-dihydroxyvitamin D3 analogues having a spiro-oxetane fused at the C2 position in the A-ring” (Bioorg Med Chem, 2013):

Columns and labels:
[1] = target: T1, Vitamin D3 receptor (Bos taurus) (UniProt Q28037); assay: Displacement of [3H]-1alpha,25 dihydroxyvitamin D3 from bovine thymus VDR after 60 mins relative to 1alpha,25-dihydroxyvitamin D3
T1 sequence (whole entry): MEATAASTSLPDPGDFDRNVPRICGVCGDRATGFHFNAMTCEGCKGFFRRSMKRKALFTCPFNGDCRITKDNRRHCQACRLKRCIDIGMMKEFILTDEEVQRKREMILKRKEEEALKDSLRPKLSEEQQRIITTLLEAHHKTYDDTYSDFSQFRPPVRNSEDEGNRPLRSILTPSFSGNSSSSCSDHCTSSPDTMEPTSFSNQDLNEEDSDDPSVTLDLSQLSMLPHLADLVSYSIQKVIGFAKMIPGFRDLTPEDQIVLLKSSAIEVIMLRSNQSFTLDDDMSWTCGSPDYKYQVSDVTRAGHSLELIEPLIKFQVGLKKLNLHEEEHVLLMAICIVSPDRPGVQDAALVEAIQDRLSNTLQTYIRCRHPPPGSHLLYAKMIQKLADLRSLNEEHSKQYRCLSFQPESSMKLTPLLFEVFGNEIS

[2] = target: T1, Vitamin D3 receptor (Bos taurus); assay: Binding affinity to bovine thymus VDR relative to 1alpha,25-dihydroxyvitamin D3
[3] = target: T2, Vitamin D3 receptor (Homo sapiens) (UniProt P11473); assay: Binding affinity to VDR (unknown origin) relative to 1alpha,25-dihydroxyvitamin D3
T2 sequence (whole entry): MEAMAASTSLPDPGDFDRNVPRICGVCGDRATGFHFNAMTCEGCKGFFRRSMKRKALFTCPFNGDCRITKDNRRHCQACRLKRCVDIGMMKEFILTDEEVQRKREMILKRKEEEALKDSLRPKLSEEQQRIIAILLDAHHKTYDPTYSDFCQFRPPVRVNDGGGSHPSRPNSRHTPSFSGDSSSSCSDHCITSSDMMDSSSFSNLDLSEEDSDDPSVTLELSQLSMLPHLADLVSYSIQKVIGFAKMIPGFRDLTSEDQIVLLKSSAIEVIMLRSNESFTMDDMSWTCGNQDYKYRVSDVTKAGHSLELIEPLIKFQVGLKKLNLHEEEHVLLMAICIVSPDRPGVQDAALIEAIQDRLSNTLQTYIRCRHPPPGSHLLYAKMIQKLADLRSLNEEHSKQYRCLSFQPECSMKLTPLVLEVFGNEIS

fold change (FC) [1]	SMILES	other results
5	C=C1/C(=C\C=C2/CCC[C@]3(C)[C@@H]([C@H](C)CCCC(C)(C)O)CC[C@@H]23)C[C@@H](O)C2(COC2)[C@@H]1O	–
0.04	C=C1/C(=C\C=C2/CCC[C@]3(C)[C@@H]([C@H](C)CCCC(C)(C)O)CC[C@@H]23)C[C@H](O)C2(COC2)[C@@H]1O	–

Continued, compound first:

SMILES	fold change (FC) [1]	other results
C=C1/C(=C\C=C2/CCC[C@]3(C)[C@@H]([C@H](C)CCCC(C)(C)O)CC[C@@H]23)C[C@@H](O)C[C@@H]1O	100	–
C=C1/C(=C\C=C2/CCC[C@]3(C)[C@@H]([C@H](C)CCCC(C)(C)O)CC[C@@H]23)C[C@@H](O)C2(COC2)[C@H]1O	0.002	–
C=C1/C(=C\C=C2/CCC[C@]3(C)[C@@H]([C@H](C)CCCC(C)(C)O)CC[C@@H]23)C[C@@H](O)[C@@H](C)[C@@H]1O	–	fold change (FC) [2]: 13
C=C1/C(=C\C=C2/CCC[C@]3(C)[C@@H]([C@H](C)CCCC(C)(C)O)CC[C@@H]23)C[C@H](O)C2(COC2)[C@H]1O	0.001	–
C=C1/C(=C\C=C2/CCC[C@]3(C)[C@@H]([C@H](C)CCCC(C)(C)O)CC[C@@H]23)C[C@@H](O)[C@H](C)[C@@H]1O	–	fold change (FC) [2]: 400
C=C1/C(=C\C=C2/CCC[C@]3(C)[C@@H]([C@H](C)CCCC(C)(C)O)CC[C@@H]23)C[C@@H](O)C(C)(C)[C@@H]1O	–	fold change (FC) [3]: 3
